Where a name gives a salt, the structure may show the parent alone.
assay: in vitro; conditions: rat, gh3-tre-luc cells, AC50 (uM) modified / 1000

Row | SMILES | CC50 at 24 h [µM]
1 | O=C(CCS)OCC(COC(=O)CCS)(COC(=O)CCS)COC(=O)CCS [3-[(3-Sulfanylpropanoyl)oxy]-2,2-bis{[(3-sulfanylpropanoyl)oxy]methyl}propyl 3-sulfanylpropanoate] | > 90
2 | O=C(/C=C/c1ccccc1)OC/C=C/c1ccccc1 [3-Phenyl-2-propen-1-yl 3-phenylacrylate] | > 90
3 | CC(C)(Oc1ccc(Cl)cc1)C(=O)O [Clofibric acid] | > 50
4 | O=C1[C@H]2CCCC[C@H]2C(=O)N1CCCCN1CCN(c2nsc3ccccc23)CC1 [Perospirone hydrochloride] | 21
5 | O=C(O)/C=C/c1c[nH]cn1 [Urocanic acid] | > 90
6 | C=CCSCC1Nc2cc(Cl)c(S(N)(=O)=O)cc2S(=O)(=O)N1 (centres unmarked) [Althiazide] | > 50
7 | Cc1ccc(C)c(O)c1 [2,5-Dimethylphenol] | > 90
8 | C1CCNCC1 [Piperidine] | > 90
9 | CC(C)CCCO [4-Methylpentan-1-ol] | > 90
10 | CC(O)CN(CCCN(C)C)CCCN(C)C (centres unmarked) [1-{Bis[3-(dimethylamino)propyl]amino}propan-2-ol] | > 90
11 | CN1CCC(N(Cc2cccs2)c2ccccc2)CC1 [Thenalidine] | 27
12 | CCC(=O)O[C@]1(C(=O)SCF)[C@H](C)C[C@H]2[C@@H]3C[C@H](F)C4=CC(=O)C=C[C@]4(C)[C@@]3(F)[C@@H](O)C[C@@]21C [Fluticasone propionate] | > 20
13 | O=Nc1ccc(NO)cc1 [p-Benzoquinone dioxime] | > 100
14 | CCCCCCCCOS(=O)(=O)O [Sodium octyl sulfate] | > 90
15 | CN(C)CCC(O)(c1ccccc1)c1ccccc1Cl (centres unmarked) [Chlophedianol] | 26
16 | CCCCNC1CC(C)(C)NC(C)(C)C1 [N-Butyl-2,2,6,6-tetramethylpiperidin-4-amine] | > 90
17 | COc1cnc(OC)n2nc(NS(=O)(=O)c3c(OCC(F)F)cccc3C(F)(F)F)nc12 [Penoxsulam] | > 90
18 | COC(=O)C(Cl)C(=O)OC [Dimethyl chloromalonate] | > 50
19 | CCCC(=O)O[C@]1(C(=O)COC(=O)CC)[C@@H](C)C[C@H]2[C@@H]3CCC4=CC(=O)C=C[C@]4(C)[C@@]3(F)[C@@H](O)C[C@@]21C [Betamethasone butyrate propionate] | > 50
20 | CCC[C@H](N[C@@H](C)C(=O)N1[C@H](C(=O)O)C[C@@H]2CCCC[C@@H]21)C(=O)OCC [Perindopril] | > 50
21 | CC(CO)c1ccccc1 (centres unmarked) [2-Phenylpropan-1-ol] | > 90
22 | O=C1OC[C@@H](Cc2cccc(O)c2)[C@@H]1Cc1cccc(O)c1 [Enterolactone] | > 30
23 | O=C(O)c1ccc(OCCn2ccnc2)cc1 [Dazoxiben] | > 50
24 | CN(C)C(=O)Oc1ccc[n+](C)c1 [Pyridostigmine bromide] | > 50
25 | Cc1cccc(C)c1NC(=O)CN(CC(=O)O)CC(=O)O [Lidofenin] | > 50
26 | CCC(=O)C=CC1C(C)=CCCC1(C)C (centres unmarked) [1-(2,6,6-Trimethyl-2-cyclohexen-1-yl)-1-penten-3-one] | > 90

Row | SMILES | CC50 at 24 h [µM]
27 | C[C@@H]1O[C@@H](O[C@H]2C[C@@H](O)[C@]3(CO)[C@H]4[C@H](O)C[C@]5(C)[C@@H](C6=CC(=O)OC6)CC[C@]5(O)[C@@H]4CC[C@]3(O)C2)[C@H](O)[C@H](O)[C@H]1O [Ouabain] | > 80
28 | CC(C)=CCCC(C)C=O (centres unmarked) [2,6-Dimethylhept-5-enal] | > 90
29 | c1ccc2[nH]ccc2c1 [Indole] | > 90
30 | NC(=O)N1c2ccccc2CC(=O)c2ccccc21 [Oxcarbazepine] | 14.5
31 | CCCCCCCCCCCCCCCCCC(=O)OCCCCCCCCCCCCCC(C)C [Isocetyl stearate] | > 90
32 | c1ccc(P(c2ccccc2)c2ccccc2)cc1 [Triphenylphosphine] | > 90
33 | OCCOc1ccc(OCCO)cc1 [2,2'-[1,4-Phenylenebis(oxy)]diethanol] | > 90
34 | CC(=O)O[C@H]1C[C@@H]2CC[C@@H]3[C@H](CC[C@@]4(C)[C@H]3C[C@H]([N+]3(C)CCCCC3)[C@@H]4OC(C)=O)[C@@]2(C)C[C@@H]1[N+]1(C)CCCCC1 [Pancuronium bromide] | > 50
35 | CNCCS(=O)(=O)O [Sodium 2-(methylamino)ethanesulfonate] | > 90
36 | CC1=CC(=O)CC(C)(C)C1=O [2,6,6-Trimethyl-2-cyclohexene-1,4-dione] | > 90
37 | CC(COC(C)(C)C)OCCCO (centres unmarked) [Di(propylene glycol) tert-butyl ether] | > 90
38 | S=C=NCc1ccccc1 [Benzyl isothiocyanate] | > 90
39 | CC(C)CCCCCCOC(=O)CCCCC(=O)OCCCCCCC(C)C [Hexanedioic acid, diisononyl ester] | > 90
40 | OCCO [Ethylene glycol] | > 100
41 | O=C1OC(OC(=O)c2cccnc2Nc2cccc(C(F)(F)F)c2)c2ccccc21 (centres unmarked) [Talniflumate] | > 50
42 | CC(C)=CCC/C(C)=C\CO [(2Z)-3,7-Dimethylocta-2,6-dien-1-ol] | > 90
43 | C/C=C(/CC[C@@H](C)[C@H]1CC[C@H]2C3=CC[C@H]4[C@H](C)[C@@H](O)CC[C@]4(C)[C@H]3CC[C@]12C)C(C)C [Sitosterol alpha1] | > 50
44 | C=CC(=C)CCC=C(C)C [Myrcene] | > 90
45 | COc1cc(C(=O)NCCCCCC(=O)O)cc(OC)c1OC [Capobenic acid] | > 50
46 | Cc1c(C)n(CCN(C)C)c2ccc(C(=O)OCCN(C)C)cc12 [Amindocate] | 34.1
47 | Cc1ccc(S(=O)(=O)O)cc1C [Sodium xylenesulfonate] | > 90
48 | Cc1cnc(C)c(C)n1 [2,3,5-Trimethylpyrazine] | > 100
49 | NCCS [Cysteamine hydrochloride] | > 50
50 | O=c1c2ccccc2nnn1CCl [3-(Chloromethyl)-1,2,3-benzotriazin-4(3H)-one] | > 90
51 | CC1(C)C(=O)N(Br)C(=O)N1Cl [3-Bromo-1-chloro-5,5-dimethylhydantoin] | > 90
52 | NCC(=O)O [Glycine] | > 50

Row | SMILES | CC50 at 24 h [µM]
53 | C=C(C)C(=O)OCCCCCCCC(C)C [Isodecyl methacrylate] | > 90
54 | CSc1ccc2c(c1)C(N1CCN(C)CC1)Cc1ccccc1S2 (centres unmarked) [Metitepine] | 5.16
55 | CC1(C)C2CC[C@]3(C)[C@H](C(=O)C=C4[C@@H]5C[C@@](C)(C(=O)O)CC[C@]5(C)CC[C@]43C)[C@@]2(C)CC[C@@H]1O[C@H]1O[C@H](C(=O)O)[C@@H](O)[C@H](O)[C@H]1O[C@@H]1O[C@H](C(=O)O)[C@@H](O)[C@H](O)[C@H]1O (some centres unmarked) [Glycyrrhizic acid, monosodium salt] | > 50
56 | CN(N=O)c1ccccc1 [Nitrosomethylaniline] | > 90
57 | CN1CCC(Nc2ncc3ncnc(Nc4ccc(F)c(Cl)c4)c3n2)CC1 [Falnidamol dihydrochloride] | 11.7
58 | O=C1c2ccccc2C(=O)c2c(O)ccc(O)c21 [1,4-Dihydroxyanthracene-9,10-dione] | > 90
59 | COc1cc(C(C)C)c2c(c1)S(=O)(=O)N(COc1cc(=O)n3cccc(OCCN4CCCCC4)c3n1)C2=O [SSR69071] | 11.9
60 | CCC(=O)c1ccc2c(c1)N(CCCN1CCN(CCO)CC1)c1ccccc1S2 [Carphenazine dimaleate] | 6.82
61 | CCCCCCCCCCCCNC(=N)N [Dodine] | > 4
62 | CN1C(=O)c2ccc([N+](=O)[O-])cc2C1=O [N-Methyl-4-nitrophthalimide] | > 90
63 | c1cnc2c(n1)CCCC2 [5,6,7,8-Tetrahydroquinoxaline] | > 90
64 | CCC(=O)C1CC(C(C)C)CC=C1C (centres unmarked) [1-(5-Isopropyl-2-methyl-cyclohex-2-enyl)-propan-1-one] | > 90
65 | CC(=O)SC[C@@H](C)C(=O)N1CCC[C@H]1C(=O)N[C@@H](Cc1ccccc1)C(=O)O [Alacepril] | > 50
66 | CCCCC1CCCCC(=O)O1 (centres unmarked) [epsilon-Decalactone] | > 90
67 | CCCCCCCCCCCC[N+](C)(C)CC(=O)O [N-(Alkyl C10-C16)-N,N-dimethylglycine betaine] | 79.2
68 | C[C@@H]1C[C@H]2[C@@H]3C[C@H](F)C4=CC(=O)C=C[C@]4(C)[C@@]3(F)[C@@H](O)C[C@]2(C)[C@@]1(O)C(=O)COC(=O)C(C)(C)C [Flumethasone pivalate] | > 50
69 | CN [Methylammonium nitrate] | > 100
70 | CN1CCC[C@@H]1Cc1c[nH]c2ccc(CCS(=O)(=O)c3ccccc3)cc12 [Eletriptan] | 21.1
71 | CCCCCCCCCCCCCCCCCC(=O)O [Triethanolamine stearate] | > 90
72 | COc1cc(C[C@H](C)N)c(OC)cc1C [(S)-(+)-2,5-Dimethoxy-4-methylamphetamine hydrochloride] | > 100
73 | O=c1cc(-c2ccccc2)oc2ccc3ccccc3c12 [5,6-Benzoflavone] | > 90
74 | CCOc1ccc2ccccc2c1C(=O)N[C@@H]1C(=O)N2[C@@H]1SC(C)(C)[C@@H]2C(=O)O [Nafcillin sodium monohydrate] | > 20
75 | O=C(O)c1cccc(C(=O)O)c1 [1,3-Benzenedicarboxylic acid] | > 90
76 | CC(C)N(CCC(C(N)=O)(c1ccccc1)c1ccccn1)C(C)C (centres unmarked) [Disopyramide] | > 50

same assay, conditions: rat, gh3-tre-luc cells, AC50 (uM) modified / 1000, Tox21_110001=Tox21_111889; viability, 1 nM T3 present, 24 h

Row | SMILES | CC50 at 24 h [µM]
77 | Cc1c(Cl)c(=O)oc2cc(OP(=O)(OCCCl)OCCCl)ccc12 [Haloxon] | > 50

same assay, conditions: rat, gh3-tre-luc cells, AC50 (uM) modified / 1000, Tox21_110001=Tox21_200821; viability, 1 nM T3 present, 24 h

Row | SMILES | CC50 at 24 h [µM]
78 | O=[N+]([O-])c1ccccc1CCl [2-Nitrobenzyl chloride] | > 90

same assay, conditions: rat, gh3-tre-luc cells, AC50 (uM) modified / 1000, Tox21_110001=Tox21_301598; viability, 1 nM T3 present, 24 h

Row | SMILES | CC50 at 24 h [µM]
79 | CC(=O)/C=C/c1ccccc1 [Methyl trans-styryl ketone] | > 90

same assay, conditions: rat, gh3-tre-luc cells, AC50 (uM) modified / 1000, Tox21_110001=Tox21_301853; viability, 1 nM T3 present, 24 h

Row | SMILES | CC50 at 24 h [µM]
80 | COCC(=O)N(c1c(C)cccc1C)N1CCOC1=O [Oxadixyl] | > 90
